The conditions of series [1]: cited from earlier work.
In a further series the test system is skin of albino rabbits. Briefly: Acute dermal irritation/corrosion (OECD 404), single topical 4-hour application. It counts as in vivo. How it is done:
A study was conducted based upon the following references: OECD 404, Organization for Economic Co-Operation and Development (OECD), Guidelines for the Testing of Chemicals, “Acute Dermal Irritation/Corrosion”, adopted 24 Apr. 2002. ISO 10993-12, 2012, Biological Evaluation of Medical Devices—Part 12: Sample Preparation and Reference Materials. ISO/IEC 17025, 2005. General Requirements for the Competence of Testing and Calibration Laboratories.
The skin of three albino rabbits was prepared for testing by clipping the skin of the trunk free of hair at the application sites within 24 hours of the test. The sites of application were not abraded deliberately or accidentally during preparation. Tamibarotene was administered at dose levels of 0.02%, 0.04%, and 0.08% in 60% DMSO. The animals were treated by introducing each dose level (0.5 ml) under gauze patches at individual application sites. The control (0.5 ml of 60% DMSO) was applied to a fourth site.
As it was suspected that tamibarotene might produce severe irritancy/corrosion, a single animal test was initially employed. Test patches of each dose level and control were applied. After three minutes, the skin sites were examined by gently lifting the bandage to examine the skin without bandage removal. […] If a corrosion effect was observed after three minutes or one hour, the test was to be immediately terminated.
Because an irritation or corrosive effect was not observed in the initial test after one hour, the response was confirmed using two additional animals dosed with each dose level and control at individual application sites for four hours. At the end of the exposure period, the wrapping was removed from and the skin washed with USP sterile Water for Injection (SWFI) to remove any test substance still remaining. […] Observations were scored according to the Draize Scale for Scoring Skin Reactions.

Series [2] has as its system promyelocytic leukemia cells. As to conditions: relative to all-trans retinoic acid; cited from earlier work.
For series [3] the following is noted: clinical trials; cited from earlier work.

As to `CC1=C(/C=C/C(C)=C/C=C/C(C)=C/C(=O)O)C(C)(C)CCC1` [ATRA, all-trans retinoic acid], the “plasma concentration during daily administration” value in series [1] is listed as “declines considerably”.
Consider `CC1(C)CCC(C)(C)c2cc(NC(=O)c3ccc(C(=O)O)cc3)ccc21` [tamibarotene, Benzoic acid,4-[[(5,6,7,8-tetrahydro-5,5,8,8-tetramethyl-2-naphthalenyl)amino]carbonyl]—], for which, in the series on skin of albino rabbits (initial single animal test, 0.02%, 0.04%, 0.08% in 60% DMSO, after one hour), the “irritation or corrosive effect after one hour” value is “not observed”. In the series on skin of albino rabbits (initial single animal, 0.02%, 0.04%, 0.08% in 60% DMSO, 0.5 ml under gauze patches, examined after three minutes), the “serious skin reaction after three minutes” value is listed as “no serious skin reaction was observed”. The “primary dermal irritation classification” value in the series on skin of albino rabbits (single topical 4-hour application, dose levels 0.02%, 0.04%, 0.08% in 60% DMSO) is “non-irritant”. Further, the body weight entry in the series on skin of albino rabbits (three albino rabbits, during the study) was “gained weight”. Besides, in the series with skin of albino rabbits (three rabbits, 4-hour exposure, 0.02%, 0.04%, 0.08% in 60% DMSO, observed 60 minutes, 24, 48, 72 hours after bandage removal), the “signs of erythema or edema (Draize Scale)” value is “None of the test sites presented any signs of erythema or edema”. Moreover, the “potency as an inducer of differentiation compared to ATRA” value in series [2] was “several times more potent”. Also, the “plasma concentration during daily administration” value in series [1] is “sustains plasma level”. Moreover, the “adverse side effects compared to ATRA” value in series [3] is listed as “milder”.
